In patent publication US10065931B2, “Quinazolin crotyl compound dimaleate crystals and preparation methods and uses thereof” (HANGZHOU HUADONG MEDICINE GROUP BIOPHARMACEUTICAL CO., LTD., priority 2015, dated 2018):
Values after ≈ are worked out from the molar mass of the structure shown. Read-outs that look alike come from different tables or passages of the source.

What was measured:
Assay type in all cases: physicochemical
[1] = Storage stability test, physical stability by XRPD; details: for XRPD pattern after storage (physical stability): one week of storage, 25° C./60% R.H. and 40° C./75% R.H.
Description: In the following examples, the XRPD of the crystal form was determined using a PANalytical Empyrean X-ray powder diffraction analyzer, the parameters are summarized in Table 1.

[2] = First set of competition of stabilities between crystal form K and crystal form F (suspension, different water activities, XRPD); details: room temperature
Description: After 12 hours of stirring under room temperature, the solid was isolated by centrifugation and the XRPD thereof was tested.

[3] = Storage stability test, chemical content by HPLC; details: for Initial content: before storage; for Chemical stability, 25° C./60% R.H. One week / Chemical stability, 40° C./75% R.H. One week: chemical content as % of initial content; for Chemical content after storage (in words): one week, 40° C./75% R.H.
[4] = Solubility in water, FaSSIF, FeSSIF and SGF
Description: Wherein FaSSIF and FeSSIF were prepared according to the method described in the literature: Study of a Standardized Taurocholate-Lecithin Powder for Preparing the Biorelevant Media FeSSIF and FaSSIF (Kloefer, B., van Hoogevest, P., Moloney, R., Kuentz, M., Leigh, M. L., & Dressman, J. (2010). Dissolution Technologies, August 17(3), 6-14. SGF was prepared according to the method described in the literature Albendazole Generics-A Comparative In Vitro Study (Galia E., Horton, J and Dressman J. (1999) Pharmaceutical Research, 16 (12), […]). The test results are summarized in Table 6.

[5] = Second set of competition of stabilities between crystal form K and crystal form F (solid mixture stored 10 days, XRPD)
Source text: Then two samples were placed in different environments for 10 days and were subjected to XRPD test respectively.

[6] = Competition of stability between crystal form K and crystal form G in water (XRPD); details: 12 hours stirring, room temperature
Description: After 12 hours of stirring under room temperature, the solid was separated by centrifugation and was subjected to XRPD test, the results are shown in FIG. 20.

Row | SMILES | XRPD pattern after storage (physical stability) [1] | Initial content [3] [%] | Chemical stability, 25° C./60% R.H. One week [3] [%] | Chemical stability, 40° C./75% R.H. One week [3] [%] | Chemical content after storage (in words) [3] | Solubility ([4]; FaSSIF, pH 6.5) [µg/mL] | Solubility ([4]; FeSSIF, pH 5.0) [µg/mL] | Solubility ([4]; SGF, pH 1.8) [µg/mL] | Solubility ([4]; Water, pH 7.4) [µg/mL] | further results
1 | CN(C)C/C=C/C(=O)Nc1cc2c(Nc3ccc(F)c(Cl)c3)ncnc2cc1OC(F)F [Crystal form K] | basically the same | 100.0 | 99.9 | 99.8 | stable | 8360 (≈ 17.9 mM) | 1240 (≈ 2.66 mM) | >9950 | >10020 | XRPD pattern after storage (physical and chemical stability) ([1]; 6 months of storage, 40° C./75% R.H.): basically the same; Water activity at which crystal form K is thermodynamically more stable than crystal form F [2]: greater than or equal to 0.15; Crystal form after competition with crystal form F ([2]; water activity 0.00, IPA, 12 hours stirring): Crystal form F; Crystal form after competition with crystal form F ([2]; water activity 0.15, IPA:H2O 99:1, 12 hours stirring): Crystal form K; Crystal form after competition with crystal form F ([2]; water activity 0.39, IPA:H2O 24:1, 12 hours stirring): Crystal form K; Crystal form after competition with crystal form F ([2]; water activity 0.60, ACN:H2O 19:1, 12 hours stirring): Crystal form K; Crystal form after competition with crystal form F ([2]; water activity 0.80, ACN:H2O 9:1, 12 hours stirring): Crystal form K
2 | CN(C)C/C=C/C(=O)Nc1cc2c(Nc3ccc(F)c(Cl)c3)ncnc2cc1OC(F)F [Crystal form F] | basically the same | 100.0 | 99.8 | 99.7 | stable | 2440 (≈ 5.24 mM) | 570 (≈ 1.22 mM) | >10650 | >9810 | Crystal form after storage of crystal form F mixed with about 1% crystal form K ([5]; 25° C., 60% R.H.): form F; Crystal form after storage of crystal form F mixed with about 1% crystal form K ([5]; 25° C., 60% R.H., listed as crystal form F): did not change; Crystal form after storage of crystal form F mixed with about 1% crystal form K ([5]; 40° C., 75% R.H.): form K; Crystal form after storage of crystal form F mixed with about 1% crystal form K ([5]; 40° C., 75% R.H., listed as crystal form F): converted to the crystal form K
3 | CN(C)C/C=C/C(=O)Nc1cc2c(Nc3ccc(F)c(Cl)c3)ncnc2cc1OC(F)F [Free base] | changed significantly | 100.0 | 99.8 | 94.8 | – | 30 (≈ 0.0644 mM) | 100 (≈ 0.215 mM) | – | <2.5 | Long-term storage stability (in words) [1]: poor; Chemical stability, 40° C./75% R.H. One week ([3]; listed as free base): 94.8%; Water solubility (in words) [4]: poor; Solubility ([4]; SGF, pH 1.8, simulated gastric fluid, thermodynamic from solid, SGF, pH 1.8, read-out: Solubility): 8370 µg/mL (≈ 18 mM)
4 | CN(C)C/C=C/C(=O)Nc1cc2c(Nc3ccc(F)c(Cl)c3)ncnc2cc1OC(F)F [Crystal form G] | – | 100.0 | 99.8 | 99.6 | stable | – | – | – | – | Crystal form after competition with crystal form K in saturated water solution [6]: converted to crystal form K
5 | CN(C)C/C=C/C(=O)Nc1cc2c(Nc3ccc(F)c(Cl)c3)ncnc2cc1OC(F)F [Crystal form E] | – | 100.0 | 99.8 | 99.5 | – | – | – | – | – | –
